Data from publication PMC9960821, “Evaluation of Rhenium and Technetium-99m Complexes Bearing Quinazoline Derivatives as Potential EGFR Agents” (Molecules, 2023).

Experiments:
[1] = target: T1, EGFR (Homo sapiens, UniProt P00533); test: Inhibition of EGFR phosphorylation in intact A431 cells (immunoblotting); type: cell-based; details: 2 h compound then EGF 20 ng/mL 5 min, Western blot
T1 construct: by immunoblotting in intact A431 cells that overexpress EGFR; endogenous in cells; host or cells: A431 (human epidermoid vulvar carcinoma)
T1 sequence (P00533 25-1210): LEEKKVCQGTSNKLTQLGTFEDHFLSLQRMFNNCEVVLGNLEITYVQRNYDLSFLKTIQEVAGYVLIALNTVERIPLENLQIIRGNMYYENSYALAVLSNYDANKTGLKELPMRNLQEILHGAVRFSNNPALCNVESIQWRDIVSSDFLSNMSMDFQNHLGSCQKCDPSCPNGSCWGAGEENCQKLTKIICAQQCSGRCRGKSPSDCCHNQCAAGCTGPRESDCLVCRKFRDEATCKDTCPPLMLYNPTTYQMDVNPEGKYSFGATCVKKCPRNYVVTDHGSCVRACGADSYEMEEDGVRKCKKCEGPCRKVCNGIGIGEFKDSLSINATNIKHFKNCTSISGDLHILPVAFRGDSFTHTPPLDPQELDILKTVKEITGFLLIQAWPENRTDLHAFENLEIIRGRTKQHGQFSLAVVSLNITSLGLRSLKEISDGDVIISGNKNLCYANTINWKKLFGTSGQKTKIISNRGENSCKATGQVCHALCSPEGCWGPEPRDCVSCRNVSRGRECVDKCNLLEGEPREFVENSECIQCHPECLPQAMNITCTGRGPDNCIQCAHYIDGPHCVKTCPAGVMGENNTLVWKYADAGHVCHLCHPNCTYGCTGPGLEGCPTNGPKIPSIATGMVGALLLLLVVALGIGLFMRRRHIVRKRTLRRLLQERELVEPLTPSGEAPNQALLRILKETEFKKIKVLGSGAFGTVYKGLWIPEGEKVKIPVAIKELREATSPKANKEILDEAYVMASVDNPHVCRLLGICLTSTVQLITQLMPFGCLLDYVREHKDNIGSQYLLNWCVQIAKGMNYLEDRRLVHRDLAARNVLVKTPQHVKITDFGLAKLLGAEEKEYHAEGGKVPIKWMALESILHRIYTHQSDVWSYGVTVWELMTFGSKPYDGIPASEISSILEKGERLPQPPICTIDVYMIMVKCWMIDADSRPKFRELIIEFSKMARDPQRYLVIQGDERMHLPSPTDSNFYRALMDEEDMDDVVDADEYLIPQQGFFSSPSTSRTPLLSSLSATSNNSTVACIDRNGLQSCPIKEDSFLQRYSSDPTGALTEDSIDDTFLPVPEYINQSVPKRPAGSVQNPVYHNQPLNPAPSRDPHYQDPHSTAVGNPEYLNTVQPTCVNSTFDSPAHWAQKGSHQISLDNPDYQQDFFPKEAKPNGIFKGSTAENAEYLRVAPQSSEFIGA
Protocol: Complex 5a was evaluated for its potency to inhibit EGFR phosphorylation in various concentrations by immunoblotting in intact A431 cells that overexpress EGFR (Figure 3). In addition, the percentage of EGFR phosphorylation was calculated, and a dose-response curve was performed (Figure 4).
Cell line. The in vitro biological studies were established using the human epidermoid vulvar carcinoma A431 cell line, which overexpresses EGFR. Cells were available in our laboratory from previous studies. Cells were maintained in high glucose D-MEM medium with L-glutamine (PAA Laboratories GmbH, Pasching, Austria) and supplemented with 10% fetal bovine serum (PAA Laboratories GmbH) and penicillin/streptomycin (PAA Laboratories GmbH) 100 UI/100 μg per mL, in 5% CO2 incubator at 37 °C.
The inhibition of EGFR phosphorylation was studied as described in the literature. A431 cells (5 × 10^5 cells/well) were seeded in 6-well plates and incubated for 24 h. Then, the medium was replaced with fresh medium without fetal bovine serum. […] Protein band quantification was performed using Image-J software, and the percentage of EGFR phosphorylation inhibition was calculated using GraphPad Prism 9.0 software.

[2] = Cysteine and histidine challenge of 99mTc complexes (RP-HPLC); type: physicochemical
Protocol: The stability of complexes 5b and 7b was studied in their reaction mixture and after isolation by HPLC for up to 24 h.
Cysteine and histidine challenge: Histidine (100 µL, 1 × 10^−2 M) or cysteine (100 µL, 1 × 10^−2 M) solution in 0.1 M PBS was mixed with 100 µL (50–120 MBq) of the RP-HPLC isolated ^99mTc complexes in 0.1 M PBS (800 µL). The mixtures were incubated at 37 °C for up to 24 h and analyzed by RP-HPLC at 1, 6, and 24 h intervals.

[3] = Biodistribution in healthy Swiss Albino mice after intravenous injection; type: in vivo; details: i.v.
Protocol: The pharmacokinetic profile of complexes 5b and 7b was evaluated in Swiss Albino healthy male mice at 5, 60, and 240 min post intravenous injection. Table 4 presents the results of the biodistribution studies expressed as % Injected Dose (ID)/g ± Standard Deviation (±SD). […] The high lipophilicity characterizing both complexes justifies the rapid hepatobiliary excretion, given the decreasing activity in the liver and the increasing amount of radioactivity in the intestines. Complex 5b presented faster clearance and elimination in the intestines at 60 min p.i. 34.05% of the radioactivity excreted, compared to 29.89% at 240 min p.i. of complex 7b. Radioactivity in the urine remained low in general, however, the lower logD7.4 value of complex 7b explains the relatively higher activity in the urines (7.88 ± 0.71%) as it is slightly more hydrophilic than 5b. Moreover, the low uptake in the brain indicates almost no blood-brain barrier penetration, although the complexes have favorable physicochemical characteristics.
All the biodistribution experiments were carried out in compliance with the national laws and European protocols (2010/63/EU) related to the conduct of animal experimentation. Nine healthy Swiss Albino mice (male, 30 ± 3 g), divided into three groups of three, were injected with the HPLC-purified 5b or 7b complex in saline with 10% EtOH (0.1 mL, ~75 kBq) through the tail vein. For each group, the animals were sacrificed by cardiectomy under slight ether anesthesia 5, 60, and 240 min after the injection. The organs of interest were excised, weighed, and counted in an automatic gamma counter. The bladder and excreted urine were not weighed. The stomach and intestines were not emptied of food contents prior to radioactivity measurements. The percentage of injected dose per organ (%ID/organ) was calculated by comparison of sample radioactivity to standard solutions containing 10% of the injected dose. The calculation for blood and muscle was based on measured activity, sample weight, and body composition data (considering that blood and muscle comprise 7 and 43% of body weight). The percentage of injected dose per gram (%ID/g) was calculated by dividing the %ID/organ by the weight of the organ or tissue.

Compound: O=C([O-])CN(CCCCCC(=O)Nc1ccc2ncnc(Nc3cccc(Br)c3)c2c1)Cc1ccccn1.[99Tc+].[C-]#[O+].[C-]#[O+].[C-]#[O+] [Compound 5b, fac-[^99mTc(NNO)(CO)3]]
- IC50 [1]: 26.1 nM
- Stability after incubation with excess of histidine and cysteine ([2]; 24 h, molar ratio 1/1000, HPLC): > 95%
- %RCP in Cysteine for 24 h ([2]; excess cysteine, 37 °C): 99 ± 1%
- %RCP in Histidine for 24 h ([2]; excess histidine, 37 °C): 99 ± 1%
- In vivo stability (low spleen and stomach radioactivity; no oxidation to pertechnetate/TcO2) [3]: stable in vivo
- Blood %Injected Dose/g ([3]; 5 min): 0.85 ± 0.23 %Injected Dose/g
- Brain %Injected Dose/g ([3]; 5 min): 0.05 ± 0.02 %Injected Dose/g
- Heart %Injected Dose/g ([3]; 5 min): 0.80 ± 0.12 %Injected Dose/g
- Intestines %Injected Dose/g ([3]; 5 min): 9.22 ± 2.19 %Injected Dose/g
- Kidneys %Injected Dose/g ([3]; 5 min): 8.49 ± 1.33 %Injected Dose/g
- Liver %Injected Dose/g ([3]; 5 min): 27.68 ± 2.32 %Injected Dose/g
- Lungs %Injected Dose/g ([3]; 5 min): 0.97 ± 0.20 %Injected Dose/g
- Muscle %Injected Dose/g ([3]; 5 min): 0.19 ± 0.05 %Injected Dose/g
- Pancreas %Injected Dose/g ([3]; 5 min): 0.63 ± 0.09 %Injected Dose/g
- Spleen %Injected Dose/g ([3]; 5 min): 0.63 ± 0.09 %Injected Dose/g
- Stomach %Injected Dose/g ([3]; 5 min): 0.72 ± 0.25 %Injected Dose/g
- Urine % ID ([3]; 5 min): 0.09 ± 0.06 % ID
- Blood %Injected Dose/g ([3]; 60 min): 0.14 ± 0.03 %Injected Dose/g
- Brain %Injected Dose/g ([3]; 60 min): 0.03 ± 0.00 %Injected Dose/g
- Heart %Injected Dose/g ([3]; 60 min): 0.13 ± 0.03 %Injected Dose/g
- Intestines %Injected Dose/g ([3]; 60 min): 34.05 ± 2.05 %Injected Dose/g
- Kidneys %Injected Dose/g ([3]; 60 min): 1.28 ± 0.17 %Injected Dose/g
- Liver %Injected Dose/g ([3]; 60 min): 1.24 ± 0.24 %Injected Dose/g
- Lungs %Injected Dose/g ([3]; 60 min): 0.13 ± 0.03 %Injected Dose/g
- Muscle %Injected Dose/g ([3]; 60 min): 0.08 ± 0.01 %Injected Dose/g
- Pancreas %Injected Dose/g ([3]; 60 min): 0.10 ± 0.03 %Injected Dose/g
- Spleen %Injected Dose/g ([3]; 60 min): 0.11 ± 0.01 %Injected Dose/g
- Stomach %Injected Dose/g ([3]; 60 min): 0.64 ± 0.27 %Injected Dose/g
- Urine % ID ([3]; 60 min): 1.02 ± 0.17 % ID
- Blood %Injected Dose/g ([3]; 240 min): 0.08 ± 0.01 %Injected Dose/g
- Brain %Injected Dose/g ([3]; 240 min): 0.02 ± 0.00 %Injected Dose/g
- Heart %Injected Dose/g ([3]; 240 min): 0.05 ± 0.01 %Injected Dose/g
- Intestines %Injected Dose/g ([3]; 240 min): 37.28 ± 3.50 %Injected Dose/g
- Kidneys %Injected Dose/g ([3]; 240 min): 0.06 ± 0.01 %Injected Dose/g
- Liver %Injected Dose/g ([3]; 240 min): 0.39 ± 0.08 %Injected Dose/g
- Lungs %Injected Dose/g ([3]; 240 min): 0.08 ± 0.01 %Injected Dose/g
- Muscle %Injected Dose/g ([3]; 240 min): 0.07 ± 0.07 %Injected Dose/g
- Pancreas %Injected Dose/g ([3]; 240 min): 0.09 ± 0.00 %Injected Dose/g
- Spleen %Injected Dose/g ([3]; 240 min): 0.07 ± 0.02 %Injected Dose/g
- Stomach %Injected Dose/g ([3]; 240 min): 0.60 ± 0.18 %Injected Dose/g
- Urine % ID ([3]; 240 min): 1.33 ± 0.14 % ID
